Measured values published in US20050100888A1, “Methods based on hormone dependency of primary cancer cells” (Imperial College Innovations Limited, priority 2002, published 2005).

How the values were obtained:
estrogen receptor (ER) [1] = molecular target: T1, estrogen receptor (ER) (Homo sapiens, UniProt P03372); details: ER positive cell lines (MCF-7, T47-D, ZR75-1, BT474), virus 100:1, ligands 10^−7M
T1 sequence (P03372 1-595): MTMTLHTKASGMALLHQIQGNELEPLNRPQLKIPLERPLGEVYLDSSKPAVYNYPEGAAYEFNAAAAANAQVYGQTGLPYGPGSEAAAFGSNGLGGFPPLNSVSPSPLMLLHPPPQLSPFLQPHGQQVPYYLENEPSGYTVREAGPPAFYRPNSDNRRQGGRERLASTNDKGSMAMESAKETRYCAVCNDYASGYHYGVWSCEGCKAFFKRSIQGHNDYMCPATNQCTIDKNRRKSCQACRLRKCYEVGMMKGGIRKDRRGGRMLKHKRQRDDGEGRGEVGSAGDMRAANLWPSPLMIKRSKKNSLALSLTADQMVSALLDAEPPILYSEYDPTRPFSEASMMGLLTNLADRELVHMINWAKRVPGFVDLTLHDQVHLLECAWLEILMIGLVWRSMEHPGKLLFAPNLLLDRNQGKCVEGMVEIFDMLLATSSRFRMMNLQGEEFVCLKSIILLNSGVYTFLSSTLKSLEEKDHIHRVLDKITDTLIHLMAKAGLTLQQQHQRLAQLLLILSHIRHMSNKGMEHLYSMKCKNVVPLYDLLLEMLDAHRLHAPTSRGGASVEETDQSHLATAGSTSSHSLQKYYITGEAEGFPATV
Procedure: (§1) Reporter Gene Assay 48 hours after virus infection, 20 ul of 20% Triton in PBS was added to each well and incubated at RT for 10 minutes. […] (CRPG) made up in TBS at a concentration of 8 mg/ml was then added to the wells and the plate was incubated, foil-wrapped, at 37° C. until a colour change was observed. Plate readings were taken at a wavelength of 547 nm.

estrogen receptor (ER) [2] = experiment: adenoERreporter assay in breast cancer cells from metastatic effusions (pleural, ascites); type: cell-based, human
Text: In the case of metastatic fluid, 100 mls of the fluid was sent for cytological examination and staining for ER and PR. The remaining fluid was centrifuged and the cell pellets were pooled. This was re-suspended in RPMI-1640/1% FCS and tumour cell numbers estimated as before. If the cells were in clusters, trypsin/EDTA (Sigma, Poole, UK) was used to obtain single cell suspensions before filtering to remove any debris. The remaining steps were as above. The purified cells were either infected immediately or cultured for a few days prior to infection.
For infections of primary cells, 6-10,000 cells/well were allowed and exposed to the given quantity of virus, after which they were pelleted and re-supended in 200 ul of PR free/5% DSS medium containing the appropriate ligands prior to plating into 96-well plates.
as §1
We purified breast cancer cells from metastatic fluid, both pleural and ascites as well as fine needle aspirates (FNA) from recurrent breast cancer. These cells were counted and infected with adenoERreporter and after 48 hours a β-gal assay was performed. We have infected 9 metastatic effusions including 2 cell lines of passage number two, derived from pleural effusions and 4 FNAs. Tables 3 and 4 show the treatment history and characteristics of the patients that provided the samples. Where possible, some of the fluid was sent for cytology and ER staining.

`C[C@]12CC[C@@H]3c4ccc(O)cc4C[C@@H](CCCCCCCCC[S+]([O-])CCCC(F)(F)C(F)(F)F)[C@H]3[C@@H]1CC[C@@H]2O` (some centres unmarked) [ICI 182,780] was tested, and the “reporter activity above baseline” value (estrogen receptor (ER) [1]) was “blocked even the baseline activity”, the “Reporter Activity” value (estrogen receptor (ER) [2]; Table 3 patient 7) T4G3N1M0, Ascites, ER−/PR−, no prior endocrine treatment) was “x1.0” and the “Reporter Activity” value (estrogen receptor (ER) [2]; Table 3 patient 8) T1G1N1M0, Ascites, primary ER−/PR+, recurrent ER++/PR−, prior LHRH 11m, Arimidex) was “↓↓”. The “effect on ER activity” value (estrogen receptor (ER) [2]; patient 4 (table 3), ascites, no previous treatment) was “inhibitory” and the “proportion of cases in which inhibitory” value (estrogen receptor (ER) [2]; relapsed patients, metastatic effusions and FNAs) was 50%.
